From PubChem BioAssay (NCI)
Values joined by “and” are separate entries in the source; they are usually repeats but may differ in a detail not shown here. Equal values may be shown once.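 Test compounds were applied to cells in 96-well plates for 48 hours at 5 doses. At the GI50, growth is halved. TGI: concentration producing complete growth inhibition.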

Columns and labels:
Assay in all cases: NCI anticancer screen, dose series, 48 h
[1] = system: SF-268 CNS
[2] = system: HCT-15 colon
[3] = system: K-562 leukemia
[4] = system: SK-MEL-2 melanoma
[5] = system: SK-MEL-28 melanoma
[6] = system: PC-3 prostate
[7] = system: SN12C renal
[8] = system: NCI-H522 lung
[9] = system: NCI/ADR-RES ovarian
[10] = system: IGROV1 ovarian
[11] = system: CCRF-CEM leukemia
[12] = system: M14 melanoma
[13] = system: RXF 393 renal
[14] = system: MDA-MB-231 breast
[15] = system: EKVX NSCLC
[16] = system: MALME-3M melanoma
[17] = system: HCC-2998 colon
[18] = system: A498 renal
[19] = system: HCT-116 colon
[20] = system: MDA-N
[21] = system: OVCAR-8 ovarian
[22] = system: UACC-62 melanoma
[23] = system: 786-0 renal
[24] = system: SK-OV-3 ovarian
[25] = system: SR leukemia
[26] = system: HT29 colon
[27] = system: U251 CNS
[28] = system: COLO 205 colon
[29] = system: SK-MEL-5 melanoma
[30] = system: SF-295 CNS
[31] = system: UO-31 renal
[32] = system: DU-145 prostate
[33] = system: SNB-19 CNS
[34] = system: UACC-257 melanoma
[35] = system: NCI-H460 lung
[36] = system: BT-549 breast
[37] = system: NCI-H23 lung
[38] = system: MOLT-4 leukemia
[39] = system: A549 NSCLC
[40] = system: RPMI-8226 leukemia
[41] = system: HS 578T breast
[42] = system: MCF7 breast
[43] = system: TK-10 renal
[44] = system: NCI-H226 lung
[45] = system: HOP-92 NSCLC
[46] = system: HL-60(TB) leukemia
[47] = system: HOP-62 NSCLC
[48] = system: OVCAR-5 ovarian
[49] = system: T-47D breast
[50] = system: SNB-75 CNS
[51] = system: SW-620 colon
[52] = system: ACHN renal
[53] = system: LOX IMVI melanoma
[54] = system: MDA-MB-435
[55] = system: KM12 colon
[56] = system: OVCAR-3 ovarian
[57] = system: CAKI-1 renal
[58] = system: SF-539 CNS
[59] = system: OVCAR-4 ovarian

N#CCCNCCN(CCN(C(=O)Nc1ccccc1)c1ccccc1)C(=O)Nc1ccccc1
TGI [1]: > 100 µM
TGI [2]: > 100 µM
TGI [3]: > 100 µM
TGI [4]: > 100 µM
TGI [5]: 67.3 µM
TGI [6]: > 100 µM
TGI [7]: > 100 µM
TGI [8]: 54.4 µM
TGI [9]: > 100 µM
TGI [10]: > 100 µM
TGI [11]: > 100 µM
TGI [12]: 46.1 µM
TGI [13]: > 100 µM
TGI [14]: > 100 µM
TGI [15]: > 100 µM
TGI [16]: 54.8 µM
TGI [17]: 36 µM
TGI [18]: > 100 µM
TGI [19]: > 100 µM
TGI [20]: > 100 µM
TGI [21]: > 100 µM
TGI [22]: > 100 µM
TGI [23]: > 100 µM
TGI [24]: > 100 µM
TGI [25]: > 100 µM
TGI [26]: > 100 µM
TGI [27]: > 100 µM
TGI [28]: 46.3 µM
TGI [29]: 45 µM
TGI [30]: > 100 µM
TGI [31]: > 100 µM
TGI [32]: > 100 µM
TGI [33]: > 100 µM
TGI [34]: 32.1 µM
TGI [35]: > 100 µM
TGI [36]: > 100 µM
TGI [37]: > 100 µM
TGI [38]: > 100 µM
TGI [39]: > 100 µM
TGI [40]: > 100 µM
TGI [41]: > 100 µM
TGI [42]: > 100 µM
TGI [43]: > 100 µM
TGI [44]: > 100 µM
TGI [45]: > 100 µM
TGI [46]: > 100 µM
TGI [47]: > 100 µM
TGI [48]: > 100 µM
TGI [49]: > 100 µM
TGI [50]: > 100 µM
TGI [51]: > 100 µM
TGI [52]: > 100 µM
TGI [53]: > 100 µM

CC/C(=C(\c1ccccc1)c1ccc(OCCN(C)C)cc1)c1ccccc1
GI50 [2]: 2.01 µM
GI50 [3]: 1.84 µM
GI50 [5]: 1.6 µM
GI50 [6]: 2.47 µM
GI50 [7]: 3.34 µM
GI50 [8]: 1.42 µM
GI50 [9]: 2.86 µM
GI50 [10]: 4.44 µM
GI50 [11]: 2.33 µM
GI50 [12]: 1.02 µM
GI50 [13]: 1.39 µM
GI50 [14]: 3.59 µM
GI50 [15]: 4.74 µM
GI50 [16]: 1.91 µM
GI50 [17]: 0.878 µM
GI50 [54]: 2.66 µM
GI50 [18]: 2.3 µM
GI50 [19]: 2.25 µM
GI50 [20]: > 25 µM and 6.53 µM
TGI [20]: > 25 µM and 8.31 µM and 9.59 µM
GI50 [21]: 5.35 µM
GI50 [22]: 1.75 µM
GI50 [23]: 2.96 µM
GI50 [55]: 2.55 µM
GI50 [25]: 1.82 µM
GI50 [26]: 1.17 µM
GI50 [28]: 0.892 µM
GI50 [29]: 0.852 µM
GI50 [31]: 5.73 µM
GI50 [34]: 0.971 µM
GI50 [36]: 6.8 µM
GI50 [37]: 3.68 µM
GI50 [39]: 2.93 µM
GI50 [40]: 1.2 µM
GI50 [56]: 2.84 µM
GI50 [42]: 1.12 µM
GI50 [45]: 1.43 µM
GI50 [46]: 1.78 µM
GI50 [48]: 6.76 µM
GI50 [49]: 0.805 µM
GI50 [51]: 2.95 µM
GI50 [57]: 3.42 µM
GI50 [53]: 1.49 µM

C/C(O)=C/c1nc2ccccc2nc1/C=C(/C)O
TGI [1]: 64.6 µM
TGI [2]: > 100 µM
TGI [3]: 81 µM
TGI [4]: 40.1 µM
TGI [5]: > 100 µM
TGI [6]: > 100 µM
TGI [7]: 97.7 µM
TGI [8]: 27.7 µM
TGI [9]: 93.2 µM
TGI [10]: 54.7 µM
TGI [11]: 45.9 µM
TGI [12]: 44.4 µM
TGI [13]: 65.2 µM
TGI [14]: 53 µM
TGI [15]: 71.5 µM
TGI [16]: 50.7 µM
TGI [54]: 59.8 µM
TGI [18]: 67.4 µM
TGI [19]: 39.3 µM
TGI [20]: > 100 µM
TGI [21]: 83.3 µM
TGI [22]: 45.4 µM
TGI [23]: 45.8 µM
TGI [24]: > 100 µM
TGI [55]: 57.3 µM
TGI [58]: 99.3 µM
TGI [25]: 77.5 µM
TGI [26]: 43.3 µM
TGI [27]: 50.9 µM
TGI [28]: 47.5 µM
TGI [29]: 35.4 µM
TGI [30]: 67.5 µM
TGI [31]: 56 µM
TGI [32]: 70.4 µM
TGI [33]: > 100 µM
TGI [34]: 41 µM
TGI [35]: 34.4 µM
TGI [36]: > 100 µM
TGI [37]: > 100 µM
TGI [38]: 46.5 µM
TGI [39]: 51.3 µM
TGI [40]: 56.5 µM
TGI [41]: 67.5 µM
TGI [59]: 48.5 µM
TGI [56]: 40.7 µM
TGI [43]: 42.2 µM
TGI [44]: 61.3 µM
TGI [45]: 66.2 µM
TGI [46]: 56.4 µM
TGI [47]: 67.1 µM
TGI [48]: 79.9 µM
TGI [49]: 36.9 µM
TGI [50]: 63.3 µM
TGI [51]: > 100 µM
TGI [57]: > 100 µM
TGI [52]: 47.7 µM
TGI [53]: 56.4 µM

Cc1ccc(S(=O)(=O)NC(=O)NC(Cc2c[nH]c3ccccc23)C(=O)O)cc1 (configuration not stated)
TGI [1]: > 100 µM
TGI [2]: > 100 µM
TGI [3]: > 100 µM
TGI [4]: > 100 µM
TGI [5]: > 100 µM
TGI [6]: > 100 µM
TGI [7]: > 100 µM
TGI [8]: > 100 µM
TGI [9]: > 100 µM
TGI [10]: > 100 µM
TGI [11]: > 100 µM
TGI [12]: > 100 µM
TGI [13]: > 100 µM
TGI [14]: > 100 µM
TGI [16]: > 100 µM
TGI [19]: > 100 µM
TGI [20]: > 100 µM
TGI [21]: > 100 µM
TGI [23]: > 100 µM
TGI [24]: > 100 µM
TGI [55]: > 100 µM
TGI [58]: > 100 µM
TGI [25]: > 100 µM
TGI [26]: > 100 µM
TGI [27]: > 100 µM
TGI [28]: > 100 µM
TGI [29]: > 100 µM
TGI [30]: > 100 µM
TGI [31]: > 100 µM
TGI [32]: > 100 µM
TGI [33]: > 100 µM
TGI [34]: > 100 µM
TGI [35]: > 100 µM
TGI [36]: > 100 µM
TGI [37]: > 100 µM
TGI [38]: > 100 µM
TGI [39]: > 100 µM
TGI [40]: > 100 µM
TGI [41]: > 100 µM
TGI [59]: > 100 µM
TGI [43]: > 100 µM
TGI [45]: > 100 µM
TGI [46]: > 100 µM
TGI [47]: > 100 µM
TGI [48]: > 100 µM
TGI [49]: > 100 µM
TGI [50]: > 100 µM
TGI [51]: > 100 µM
TGI [53]: > 100 µM
